# Test results taken from patent publication US20100298141A1, “SUBSTITUTED PYRIDINE N-OXIDE HERBICIDES” (E. I. DU PONT DE NEMOURS AND COMPANY, priority 2007, published 2010).
# What was measured:
# wheat [1] = experiment: Test A pre-/postemergence greenhouse test; assay type: in vivo, Triticum aestivum; conditions: for Wheat plant response rating: 0 to 100 scale
# How it was run: (§1)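 Sowing in loam/sand; same-day pre (directed soil spray) and post (foliar, 1–2 leaf, 2–10 cm) treatment with surfactant-containing non-phytotoxic solvent formulation; ~10 days in greenhouse; eye-scored injury against untreated plants.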
# johnsongrass = experiment: Test C pre-/postemergence test; assay type: in vivo, Sorghum halepense; conditions: Preemergence
# How it was run: (§2)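 Compounds in a non-phytotoxic solvent with surfactant applied preemergence to seeded pots and, at the same time, postemergence to plants 2–18 cm tall (1- to 4-leaf stage). Paddy tests: pots flooded to 3 cm, compound applied into the water, depth held throughout.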
# velvetleaf [2] = experiment: Test C pre-/postemergence test; assay type: in vivo, Abutilon theophrasti; conditions: Preemergence
# How it was run: as §2
# eastern black nightshade = experiment: Test C pre-/postemergence test; assay type: in vivo, Solanum ptycanthum; conditions: Preemergence
# How it was run: as §2
# duck salad = experiment: Test C flooded paddy test; assay type: in vivo, Heteranthera limosa; conditions: Flood
# How it was run: (§3)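 Pots were flooded to 3 cm above the soil surface at treatment, compound applied directly to the paddy water, and that depth held throughout. Plants were kept in a greenhouse for 13 to 15 days, then visually rated against untreated controls.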
# giant foxtail = experiment: Test C pre-/postemergence test; assay type: in vivo, Setaria faberii; conditions: Preemergence
# How it was run: as §2
# catchweed bedstraw = experiment: Test C pre-/postemergence test; assay type: in vivo, Galium aparine; conditions: Preemergence
# How it was run: as §2
# morningglory = experiment: Test C pre-/postemergence test; assay type: in vivo, Ipomoea coccinea; conditions: Preemergence
# How it was run: as §2
# wheat [3] = experiment: Test C pre-/postemergence test; assay type: in vivo, Triticum aestivum; conditions: Preemergence
# How it was run: as §2
# rice = experiment: Test C flooded paddy test; assay type: in vivo, Oryza sativa; conditions: Flood
# How it was run: as §3
# corn = experiment: Test C pre-/postemergence test; assay type: in vivo, Zea mays
# How it was run: as §2
# redroot pigweed = experiment: Test A pre-/postemergence greenhouse test; assay type: in vivo, Amaranthus retroflexus; conditions: for Pigweed plant response rating: 0 to 100 scale
# How it was run: as §1
# downy brome = experiment: Test C pre-/postemergence test; assay type: in vivo, Bromus tectorum
# How it was run: as §2
# wild oat = experiment: Test C pre-/postemergence test; assay type: in vivo, Avena fatua; conditions: Preemergence
# How it was run: as §2
# velvetleaf [4] = experiment: Test A pre-/postemergence greenhouse test; assay type: in vivo, Abutilon theophrasti; conditions: for Velvetleaf plant response rating: 0 to 100 scale
# How it was run: as §1
# yellow nutsedge = experiment: Test C pre-/postemergence test; assay type: in vivo, Cyperus esculentus; conditions: Preemergence
# How it was run: as §2
# woolly cupgrass = experiment: Test C pre-/postemergence test; assay type: in vivo, Eriochloa villosa; conditions: Preemergence
# How it was run: as §2
# [5] = Postemergence, 125 g ai/ha, 0 is no effect, 100 is complete control
# [6] = Postemergence, 500 g ai/ha, 0 is no effect, 100 is complete control
# [7] = Preemergence, 125 g ai/ha, 0 no effect, 100 complete control
# [8] = Preemergence, 500 g ai/ha, 0 to 100 scale where 0 is no effect and 100 is complete control
# [9] = 31 g ai/ha, scale 0 to 100 (0 no effect, 100 complete control)
# [10] = 62 g ai/ha, scale 0 to 100, 0 no effect, 100 complete control, 13 to 15 days
# [11] = 125 g ai/ha, scale 0 to 100, 0 no effect, 100 complete control, 13 to 15 days
# [12] = 250 g ai/ha, scale 0 to 100, 0 no effect, 100 complete control, 13 to 15 days
# [13] = 62 g ai/ha, Preemergence, scale 0 to 100
# [14] = Preemergence, 31 g ai/ha, scale 0 to 100 (0 no effect, 100 complete control)
# [15] = preemergence, 125 g ai/ha, scale 0 (no effect) to 100 (complete control)
smiles,measurement,setting,value
CC(c1c(C(F)(F)F)nn(C)c1OCC(F)(F)F)S(=O)(=O)c1cccc[n+]1[O-] (racemic) [Compound 33],Wheat plant response rating,wheat [1]; [5],60
same,Wheat plant response rating,wheat [1]; [6],70
same,Wheat plant response rating,wheat [1]; [7],60
same,"Plant response rating, Wheat",wheat [1]; [8],100
same,Johnsongrass plant response rating,"johnsongrass; 62 g ai/ha, scale 0 to 100",100
same,"Plant response rating, Johnsongrass",johnsongrass; [9],98
same,"Plant response rating (0 to 100), Johnsongrass",johnsongrass; 250 g ai/ha,100
same,Velvetleaf plant response rating,"velvetleaf [2]; 62 g ai/ha, scale 0 to 100",100
same,"Plant response rating, Velvetleaf",velvetleaf [2]; [9],100
same,Nightshade plant response rating,"eastern black nightshade; 62 g ai/ha, scale 0 to 100",85
same,"Plant response rating, Nightshade",eastern black nightshade; [9],70
same,"Plant response rating, Ducksalad",duck salad; [9],0
same,"Plant response rating, Ducksalad",duck salad; [10],0
same,"Plant response rating, Ducksalad",duck salad; [11],45
same,"Plant response rating, Ducksalad",duck salad; [12],95
same,"Foxtail, Giant plant response rating","giant foxtail; 62 g ai/ha, scale 0 to 100",100
same,"Plant response rating, Foxtail, Giant",giant foxtail; [9],98
same,"Plant response rating (0 to 100), Foxtail, Giant",giant foxtail; 250 g ai/ha,100
same,Galium plant response rating,"catchweed bedstraw; 62 g ai/ha, scale 0 to 100",100
same,"Plant response rating, Galium",catchweed bedstraw; [9],100
same,"Plant response rating (0 to 100), Galium",catchweed bedstraw; 250 g ai/ha,100
same,Morningglory plant response rating,"morningglory; 62 g ai/ha, scale 0 to 100",100
same,"Plant response rating, Morningglory",morningglory; [9],100
same,Wheat plant response rating,"wheat [3]; 62 g ai/ha, scale 0 to 100",50
same,"Plant response rating, Wheat",wheat [3]; [9],30
same,"Plant response rating, Rice",rice; [9],0
same,"Plant response rating, Rice",rice; [10],0
same,"Plant response rating, Rice",rice; [11],30
same,"Plant response rating, Rice",rice; [12],75
same,Corn plant response rating,corn; [13],90
same,"Plant response rating, Corn",corn; [14],60
same,"Plant response rating (0 to 100), Corn","corn; Preemergence, 250 g ai/ha",98
same,Corn plant response rating,corn; [15],98
same,Pigweed plant response rating,redroot pigweed; [5],60
same,Pigweed plant response rating,redroot pigweed; [6],90
same,Pigweed plant response rating,redroot pigweed; [7],100
same,"Plant response rating, Pigweed",redroot pigweed; [8],100
same,"Bromegrass, Downy plant response rating",downy brome; [13],20
same,"Plant response rating, Bromegrass, Downy",downy brome; [14],0
same,"Plant response rating (0 to 100), Bromegrass, Downy","downy brome; Preemergence, 250 g ai/ha",98
same,"Bromegrass, Downy plant response rating",downy brome; [15],70
same,"Oat, Wild plant response rating","wild oat; 62 g ai/ha, scale 0 to 100",65
same,"Plant response rating, Oat, Wild",wild oat; [9],50
same,Velvetleaf plant response rating,velvetleaf [4]; [5],40
same,Velvetleaf plant response rating,velvetleaf [4]; [6],60
same,Velvetleaf plant response rating,velvetleaf [4]; [7],70
same,"Plant response rating, Velvetleaf",velvetleaf [4]; [8],100
same,"Nutsedge, Yellow plant response rating","yellow nutsedge; 62 g ai/ha, scale 0 to 100",100
same,"Plant response rating, Nutsedge, Yellow",yellow nutsedge; [9],100
same,"Cupgrass, Woolly plant response rating","woolly cupgrass; 62 g ai/ha, scale 0 to 100",98
same,"Plant response rating, Cupgrass, Woolly",woolly cupgrass; [9],85
same,"Plant response rating (0 to 100), Cupgrass, Woolly",woolly cupgrass; 250 g ai/ha,100
